# Several values for one entry are separate records, joined by “and”; a condition that tells them apart may be missing. Equal values may be shown once. Inconclusive results and toxic doses are left out.
# System: CD2F1 mice, L1210 leukemia ip, survival T/C
# Assay: NCI In Vivo Anticancer Drug Screen. Data for tumor model L1210 Leukemia (intraperitoneal) in CD2F1 (CDF1) mice
# Settings: higher = longer survival
# In short: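 Mice carrying a transplanted tumor received test compound or vehicle alone. The value is the measurement in the treated group divided by that in the vehicle-treated control group.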
# [1] = endpoint: mean survival time, dose: 50.0 mg/kg/injection, schedule: Q01DX001 (ip), vehicle: saline with Tween-80
# [2] = endpoint: mean survival time, dose: 100.0 mg/kg/injection, schedule: Q01DX001 (ip), vehicle: saline with Tween-80
# [3] = endpoint: mean survival time, dose: 200.0 mg/kg/injection, schedule: Q01DX001 (ip), vehicle: saline with Tween-80
# [4] = endpoint: mean survival time, dose: 100.0 mg/kg/injection, schedule: Q01DX009 (ip), vehicle: saline
# [5] = endpoint: mean survival time, dose: 200.0 mg/kg/injection, schedule: Q01DX009 (ip), vehicle: saline
# [6] = endpoint: mean survival time, dose: 400.0 mg/kg/injection, schedule: Q01DX001 (ip), vehicle: saline with Tween-80
# [7] = endpoint: mean survival time, dose: 100.0 mg/kg/injection, schedule: Q04DX002 (ip), vehicle: saline
# [8] = endpoint: mean survival time, dose: 200.0 mg/kg/injection, schedule: Q04DX002 (ip), vehicle: saline
# [9] = endpoint: mean survival time, dose: 100.0 mg/kg/injection, schedule: Q04DX003 (ip), vehicle: saline with Tween-80
# [10] = endpoint: mean survival time, dose: 200.0 mg/kg/injection, schedule: Q04DX003 (ip), vehicle: saline with Tween-80
# [11] = endpoint: mean survival time, dose: 100.0 mg/kg/injection, schedule: Q04DX002 (ip), vehicle: saline with Tween-80
# [12] = endpoint: mean survival time, dose: 200.0 mg/kg/injection, schedule: Q04DX002 (ip), vehicle: saline with Tween-80
# [13] = endpoint: mean survival time, dose: 400.0 mg/kg/injection, schedule: Q04DX002 (ip), vehicle: saline with Tween-80
# [14] = endpoint: mean survival time, dose: 100.0 mg/kg/injection, schedule: Q01DX009 (ip), vehicle: saline with Tween-80
# [15] = endpoint: mean survival time, dose: 200.0 mg/kg/injection, schedule: Q01DX009 (ip), vehicle: saline with Tween-80
# [16] = endpoint: mean survival time, dose: 400.0 mg/kg/injection, schedule: Q01DX009 (ip), vehicle: saline with Tween-80
compound,measurement,setting,value
Clc1cccc(N=Cc2ccc3c(c2)OCO3)c1Cl,T/C,"endpoint: mean survival time, dose: 100.0 mg/kg/injection, schedule: Q01DX001 (ip), vehicle: Klucel (hydroxypropylcellulose) (HPC)",100 % of control
same,T/C,"endpoint: mean survival time, dose: 200.0 mg/kg/injection, schedule: Q01DX001 (ip), vehicle: Klucel (hydroxypropylcellulose) (HPC)",97 % of control
same,T/C,"endpoint: mean survival time, dose: 400.0 mg/kg/injection, schedule: Q01DX001 (ip), vehicle: Klucel (hydroxypropylcellulose) (HPC)",103 % of control
COC(=O)C1CSCC1=O (stereo not drawn),T/C,[1],97 % of control
same,T/C,[2],97 % of control
same,T/C,[3],103 % of control
O=C1CN(CN2CCOCC2)C(=O)CN1CN1CCOCC1,T/C,"endpoint: mean survival time, dose: 12.5 mg/kg/injection, schedule: Q01DX009 (ip), vehicle: saline",98 % of control and 101 % of control
same,T/C,"endpoint: mean survival time, dose: 25.0 mg/kg/injection, schedule: Q01DX009 (ip), vehicle: saline",96 % of control and 98 % of control
same,T/C,"endpoint: mean survival time, dose: 50.0 mg/kg/injection, schedule: Q01DX009 (ip), vehicle: saline",90 % of control and 102 % of control
same,T/C,[4],102 % of control and 108 % of control
same,T/C,[5],106 % of control and 111 % of control
same,T/C,"endpoint: mean survival time, dose: 400.0 mg/kg/injection, schedule: Q01DX009 (ip), vehicle: saline",93 % of control and 107 % of control
COc1cccc(CN2CCNCC2)c1,T/C,"endpoint: mean survival time, dose: 25.0 mg/kg/injection, schedule: Q01DX005 (ip), vehicle: water",102 % of control
same,T/C,"endpoint: mean survival time, dose: 50.0 mg/kg/injection, schedule: Q01DX005 (ip), vehicle: water",102 % of control
same,T/C,"endpoint: mean survival time, dose: 100.0 mg/kg/injection, schedule: Q01DX005 (ip), vehicle: water",102 % of control
COC(c1ccccc1)C(c1ccccc1)[N+]1(C)CCCCC1 (stereo not drawn),T/C,"endpoint: mean survival time, dose: 75.0 mg/kg/injection, schedule: Q01DX001 (ip), vehicle: saline",97 % of control
same,T/C,"endpoint: mean survival time, dose: 150.0 mg/kg/injection, schedule: Q01DX001 (ip), vehicle: saline",113 % of control
same,T/C,"endpoint: mean survival time, dose: 300.0 mg/kg/injection, schedule: Q01DX001 (ip), vehicle: saline",97 % of control
O=C1C(=O)c2ccccc2C(O)=C1CNCCO,T/C,[2],97 % of control
same,T/C,[3],94 % of control
same,T/C,[6],94 % of control
CC(=O)NC1C(OC(C)=O)OC(COC(C)=O)C(OC(C)=O)C1OC(C)=O (stereo not drawn),T/C,[1],101 % of control
same,T/C,[2],95 % of control
same,T/C,[3],98 % of control
C[C@]12CC[C@H](O)C[C@@]1(O)CC[C@@H]1[C@@H]2CC[C@]2(C)[C@@H](c3ccc(=O)oc3)C[C@H]3O[C@]132,T/C,"endpoint: mean survival time, dose: 2.5 mg/kg/injection, schedule: Q01DX009 (ip), vehicle: other",97 % of control
same,T/C,"endpoint: mean survival time, dose: 5.0 mg/kg/injection, schedule: Q01DX009 (ip), vehicle: other",92 % of control
same,T/C,"endpoint: mean survival time, dose: 10.0 mg/kg/injection, schedule: Q01DX009 (ip), vehicle: other",91 % of control
CCOC(=O)c1ccc(-c2ccc(C(=O)OCC)o2)o1,T/C,"endpoint: mean survival time, dose: 50.0 mg/kg/injection, schedule: Q04DX002 (ip), vehicle: saline",101 % of control
same,T/C,[7],93 % of control
same,T/C,[8],97 % of control
CC(=O)NCC(O)(C1CC1)C1CC1,T/C,[7],102 % of control
same,T/C,[8],98 % of control
same,T/C,"endpoint: mean survival time, dose: 400.0 mg/kg/injection, schedule: Q04DX002 (ip), vehicle: saline",94 % of control
O=C(Cn1cc[n+](CC(=O)c2ccccc2)c1)c1ccccc1,T/C,[9],109 % of control
CC1(c2ccc(O)cc2)OCCCC1([NH-])C[NH-].[Cl][Pt+2][Cl] (stereo not drawn),T/C,"endpoint: median survival time, dose: 10.0 mg/kg/injection, schedule: Q04DX003 (ip), vehicle: saline",110 % of control
same,T/C,"endpoint: median survival time, dose: 20.0 mg/kg/injection, schedule: Q04DX003 (ip), vehicle: saline",106 % of control
same,T/C,"endpoint: median survival time, dose: 40.0 mg/kg/injection, schedule: Q04DX003 (ip), vehicle: saline",100 % of control
same,T/C,"endpoint: median survival time, dose: 80.0 mg/kg/injection, schedule: Q04DX003 (ip), vehicle: saline with Tween-80",107 % of control
same,T/C,"endpoint: median survival time, dose: 80.0 mg/kg/injection, schedule: Q04DX003 (ip), vehicle: saline",103 % of control
same,T/C,"endpoint: median survival time, dose: 160.0 mg/kg/injection, schedule: Q04DX003 (ip), vehicle: saline with Tween-80",107 % of control
same,T/C,"endpoint: median survival time, dose: 320.0 mg/kg/injection, schedule: Q04DX003 (ip), vehicle: saline with Tween-80",107 % of control
Cc1nc(SCc2ccccc2)[nH]c(=O)c1CCO,T/C,[9],96 % of control
same,T/C,[10],96 % of control
CCOC(=O)Nc1cccc([N+](=O)[O-])c1,T/C,"endpoint: mean survival time, dose: 100.0 mg/kg/injection, schedule: Q01DX009 (ip), vehicle: other",98 % of control
same,T/C,"endpoint: mean survival time, dose: 200.0 mg/kg/injection, schedule: Q01DX009 (ip), vehicle: other",113 % of control
CC(Br)(C(=O)O)C1CCCCC1 (stereo not drawn),T/C,[2],93 % of control
same,T/C,[3],96 % of control
same,T/C,[6],99 % of control
CCN(CC)CC(=O)Nc1c(Cl)cccc1Cl,T/C,[4],98 % of control
same,T/C,"endpoint: mean survival time, dose: 100.0 mg/kg/injection, schedule: Q04DX003 (ip), vehicle: saline",104 % of control
same,T/C,[5],92 % of control
same,T/C,"endpoint: mean survival time, dose: 200.0 mg/kg/injection, schedule: Q04DX003 (ip), vehicle: saline",108 % of control
same,T/C,"endpoint: mean survival time, dose: 400.0 mg/kg/injection, schedule: Q04DX003 (ip), vehicle: saline",102 % of control
Nc1nc2c(ncn2-c2cccc(NC(=O)Nc3ccc(S(=O)(=O)F)cc3)c2)c(=O)[nH]1 (tested in a mixture with another compound),T/C,[11],94 % of control
same,T/C,[12],105 % of control
same,T/C,[13],86 % of control
COc1ccc(-c2csc(=[N+]3CCCCC3)s2)cc1,T/C,"endpoint: mean survival time, dose: 1.56 mg/kg/injection, schedule: Q01DX009 (ip), vehicle: water",94 % of control and 102 % of control
same,T/C,"endpoint: mean survival time, dose: 3.12 mg/kg/injection, schedule: Q01DX009 (ip), vehicle: water",96 % of control and 102 % of control
same,T/C,"endpoint: mean survival time, dose: 6.25 mg/kg/injection, schedule: Q01DX009 (ip), vehicle: water",96 % of control and 98 % of control
same,T/C,"endpoint: mean survival time, dose: 12.5 mg/kg/injection, schedule: Q01DX009 (ip), vehicle: water",98 % of control and 106 % of control
same,T/C,"endpoint: mean survival time, dose: 25.0 mg/kg/injection, schedule: Q01DX009 (ip), vehicle: water",113 % of control and 109 % of control
N#CCCN=C1C=CC(=C(c2ccccc2)c2ccc(NCCC#N)cc2)C=C1,T/C,[11],103 % of control
same,T/C,[12],103 % of control
same,T/C,[13],107 % of control
O=C(O)C(O)CBr (stereo not drawn),T/C,"endpoint: mean survival time, dose: 12.5 mg/kg/injection, schedule: Q04DX003 (ip), vehicle: saline",101 % of control
same,T/C,"endpoint: mean survival time, dose: 25.0 mg/kg/injection, schedule: Q04DX003 (ip), vehicle: saline",106 % of control
same,T/C,"endpoint: mean survival time, dose: 50.0 mg/kg/injection, schedule: Q04DX003 (ip), vehicle: saline",106 % of control
NN1C(=O)c2c(Cl)c(Cl)c(Cl)c(Cl)c2C1=O,T/C,[14],97 % of control
same,T/C,[9],95 % of control
same,T/C,[15],98 % of control
same,T/C,[10],97 % of control
same,T/C,[16],93 % of control
same,T/C,"endpoint: mean survival time, dose: 400.0 mg/kg/injection, schedule: Q04DX003 (ip), vehicle: saline with Tween-80",92 % of control
[Cl][Pt+2]([Cl])([Cl])[Cl].[NH-]CC1(C[NH-])CCCC1,T/C,"endpoint: median survival time, dose: 3.12 mg/kg/injection, schedule: Q04DX003 (ip), vehicle: saline",171 % of control and 174 % of control
same,T/C,"endpoint: median survival time, dose: 6.25 mg/kg/injection, schedule: Q04DX003 (ip), vehicle: saline",174 % of control and 217 % of control
same,T/C,"endpoint: median survival time, dose: 12.5 mg/kg/injection, schedule: Q04DX003 (ip), vehicle: saline",280 % of control and 109 % of control
same,T/C,"endpoint: median survival time, dose: 25.0 mg/kg/injection, schedule: Q04DX003 (ip), vehicle: saline",174 % of control
CC1C(=O)OC2C1CCC1(C)C=CC(=O)C3(C)OC213 (stereo not drawn),T/C,[11],108 % of control and 104 % of control
same,T/C,[12],108 % of control and 124 % of control
same,T/C,[13],120 % of control
CCOC(=O)CNc1nc(Cl)nc(NCC(=O)OCC)n1,T/C,[2],87 % of control
same,T/C,[3],89 % of control
same,T/C,[6],91 % of control
CCSC(CC(OC(C)=O)C(OC(C)=O)C(COC(C)=O)OC(C)=O)n1cnc2c(Cl)ncnc21 (stereo not drawn),T/C,"endpoint: mean survival time, dose: 12.5 mg/kg/injection, schedule: Q01DX005 (ip), vehicle: other",98 % of control
same,T/C,"endpoint: mean survival time, dose: 25.0 mg/kg/injection, schedule: Q01DX005 (ip), vehicle: other",96 % of control
same,T/C,"endpoint: mean survival time, dose: 50.0 mg/kg/injection, schedule: Q01DX005 (ip), vehicle: other",95 % of control
same,T/C,"endpoint: mean survival time, dose: 100.0 mg/kg/injection, schedule: Q01DX005 (ip), vehicle: other",104 % of control
same,T/C,"endpoint: mean survival time, dose: 200.0 mg/kg/injection, schedule: Q01DX005 (ip), vehicle: other",105 % of control
S=C(NCCSC(=S)Nc1ccccc1)Nc1ccccc1,T/C,[14],91 % of control
same,T/C,[15],89 % of control
same,T/C,[16],106 % of control
CN(C)C=Nc1ccc(C#N)cc1,T/C,"endpoint: mean survival time, dose: 50.0 mg/kg/injection, schedule: Q01DX001 (ip), vehicle: saline",97 % of control
same,T/C,"endpoint: mean survival time, dose: 100.0 mg/kg/injection, schedule: Q01DX001 (ip), vehicle: saline",97 % of control
